Values joined by “and” are separate entries in the source; they are usually repeats but may differ in a detail not shown here. Equal values may be shown once. “Also recorded” adds a separate entry of the source. Read-outs that look alike come from different tables or passages of the source.
Key:
Ramos cells = experiment: ROS generation in drug-treated cells, carboxy-H2DCFDA probe, flow cytometry; type: cell-based; conditions: for blocking of the ROS generation induced by Compound 1: Ramos cells pre-treated 1 hour (NAC 1.0 mM or 10 mM; Tiron 500 mM) prior to Compound 1 0.5 μM for 24 hours
Description: In these experiments, we monitored the production of ROS using the cell permeable Carboxy-H2DCFDA probe. When this probe is oxidized by ROS, it emits a green fluorescence that can be detected using flow cytometry or fluorescent microscopy. Ramos cells were treated with Compound 1 (0.5 μM) for 24 hours or pre-treated with 1.0 mM or 10 mM NAC for 1 hour prior to addition of Compound 1 was then washed gently once with warm HBSS/Ca/Mg (GIBCO.14025). 25 μM carboxy-H2DCFDA (Invitrogen. C400) working solution was added to cover the cells, and the cells were incubated for 30 minutes at 37° C., protected from light. The cells were gently washed three times in warm HBSS/Ca/Mg. ROS levels, as determined by fluorescence intensity, were determined by flow cytometry (excitation at 495 nm, emission at 529 nm).
Tiron is a direct scavenger of ROS and is a potent inhibitor of oxidative stress. Ramos cells were pre-treated with 500 mM Tiron 1 hour prior to addition of Compound 1 (0.5 μM) for 24 hours, then measurement of ROS levels was performed as in Example 3.

[1] = tested on: RERF-LC-AI^IVP human lung tumor cells; experiment: Nude mouse xenograft study with fractionated ionizing radiation; type: in vivo
Description: Cells that had been cryopreserved in liquid nitrogen were rapidly thawed at 37° C. and transferred to a tissue culture flask containing growth media and then incubated at 37° C. in a 5% CO2 incubator. […] Cultures were passaged by washing with 10 mL of room temperature phosphate buffered saline (PBS) and then disassociating cells by adding 5 mL 1× trypsin-EDTA and incubating at 37° C. until the cells detached from the surface of the flask. To inactivate the trypsin, 5 mL of growth media was added and then the contents of the flask were centrifuged to pellet the cells. The supernatant was aspirated and the cell pellet was resuspended in 10 mL of growth media and the cell number determined using a hemocytometer.
Animals were housed 4-5/cage in micro-isolators, with a 12 hr/12 hr light/dark cycle, acclimated for at least 1 week prior to use and fed normal laboratory chow ad libitum.

melanoma = conditions: other currently used treatments for melanoma, cited from earlier work
Hsp70 = Hsp70 induction by Compound 1 in cells pre-treated with Tiron; type: cell-based; conditions: Ramos cells pre-treated with 500 mM Tiron 1 hour prior to Compound 1 0.5 μM for 24 hours
[2] = RECIST, Efficacy Sample (n = 50 combination, n = 27 Paclitaxel)
[3] = Tables 3 and 4, lines of the applicant's own trial

Description for Stage 1V melanoma: A total of 81 people with Stage 1V melanoma were tested in a randomized trial with ratios of 2:1, compound (I)+paclitaxel (53 people): paclitaxel alone (28 people). The dosages administered were 213 mg/m^2 compound (I), 80 mg/m^2 paclitaxel, and the dosage regimen was 3 weekly doses per each 4 week cycle. Patients were treated until progression of the disease. Patients who progressed on paclitaxel alone were given the option to crossover to compound (I)+paclitaxel and were treated until progression. The tumor assessments were performed at baseline, Cycle 2, and every other Cycle thereafter.

For `CN(NC(=O)CC(=O)NN(C)C(=S)c1ccccc1)C(=S)c1ccccc1` [Compound (1)], the “earliest time at which induction of ROS was observed” value (Ramos cells; Ramos cells, Compound 1) was ≤ 3 h, the “generation of ROS in drug-treated cells” value (Ramos cells; Ramos cells, Compound 1 0.5 μM, 24 hours, versus DMSO) was “induced the generation of ROS; also recorded: emit more reactive oxygen species than cells treated with DMSO alone” and the “% T/C” value ([1]; 100 mg/kg Compound 1 5 times per week combined with 0.5 Gy radiation 3 times per week, dosed 420 minutes after irradiation) was 47. For the same molecule, the “toxicity of the combination treatment” value ([1]; 100 mg/kg Compound 1 combined with 0.5 Gy radiation, Nude mice) was “not associated with excessive toxicity” and the “% T/C” value ([1]; 100 mg/kg Compound 1 i.v. 5 times per week, 15 doses, alone (mock irradiation)) was 112.
For `CCOP(=O)(OCC)C(C)NC(=O)N(CCCl)N=O` (stereo not drawn) [Fotemustine], the “OR (%)” value (melanoma) is listed as 15.2%, the “Survival (months)” value (melanoma) is listed as 7.3 months and the “TTP” value (melanoma) is listed as 55 days.
With `CC(=O)N[C@@H](CS)C(=O)O` [NAC] the “blocking of the ROS generation induced by Compound 1” value (Ramos cells) was “almost completely blocked the generation of ROS; also recorded: can be blocked; also recorded: block the production of reactive oxygen species”.
In the case of `CC(=O)O[C@H]1C(=O)[C@@]2(C)[C@H]([C@H](OC(=O)c3ccccc3)[C@]3(O)C[C@H](OC(=O)[C@H](O)[C@@H](NC(=O)c4ccccc4)c4ccccc4)C(C)=C1C3(C)C)[C@]1(OC(C)=O)CO[C@@H]1C[C@@H]2O` [Paclitaxel], the “OR (%)” value (melanoma; listed as Paclitaxel (Taxol)) is given as 12% and 17.8%, the “Time to Progression (days), 25th percentile” value (Stage 1V melanoma; Kaplan-Meier estimate, Efficacy Sample, 213 mg/m^2 compound (I), 80 mg/m^2 paclitaxel, 3 weekly doses per 4 week cycle) is given as 49.0 days and the “Time to Progression (days), 75th percentile” value (Stage 1V melanoma; Kaplan-Meier estimate, Efficacy Sample, same regimen) is given as 106.0 days. The “Time to Progression (days), Median” value (Stage 1V melanoma; Kaplan-Meier estimate, Efficacy Sample, same regimen, log-rank p-value 0.017) was 56.0 days, the “Best Overall Response: Partial Response (PR), percent of patients” value (Stage 1V melanoma; RECIST, Efficacy Sample) was “(3.7%)” and the “Best Overall Response: Progressive Disease (PD), percent of patients” value (Stage 1V melanoma; RECIST, Efficacy Sample) was “(59.3%)”. The “Best Overall Response: Complete Response (CR), number of patients” value (Stage 1V melanoma; [2]) was 0, the “Best Overall Response: Partial Response (PR), number of patients” value (Stage 1V melanoma; [2]) was 1 and the “Best Overall Response: Progressive Disease (PD), number of patients” value (Stage 1V melanoma; [2]) was 16. For the same molecule, the “Best Overall Response: Stable Disease (SD), number of patients” value (Stage 1V melanoma; [2]) was 10, the “CR + PR” value (Stage 1V melanoma; RECIST, Efficacy Sample, Two-Sided Fisher's Exact Test p-value 0.149) was 3.7% and the “CR (%)” value (Stage 1V melanoma; [3]) was 0%. The “OR (%)” value (Stage 1V melanoma; [3]) was 3.7%, the “PR (%)” value (Stage 1V melanoma; [3]) was 3.7% and the “TTP” value (Stage 1V melanoma; [3]) was 57 days.
In the case of `CNC(=O)c1cc(Oc2ccc(NC(=O)Nc3ccc(Cl)c(C(F)(F)F)c3)cc2)ccn1` [Sorafenib], the “PR (%)” value (melanoma) is given as 2.6%.
In the case of `CC/C(=C(\c1ccccc1)c1ccc(OCCN(C)C)cc1)c1ccccc1` [Tamoxifen], the “CR (%)” value (melanoma) is given as 1%, the “OR (%)” value (melanoma) is given as 4.9% and the “PR (%)” value (melanoma) is given as 3.9%.
In the case of `O=S(=O)(O)c1cc(O)c(O)c(S(=O)(=O)O)c1` [Tiron], the “blocking of the Hsp70 induction by Compound 1” value (Hsp70) is reported as “blocked; also recorded: blocks the induction of Hsp70” and the “blocking of the ROS generation induced by Compound 1” value (Ramos cells) is reported as “blocked the ability of Compound 1 to generate ROS; also recorded: block the production of reactive oxygen species”.
